These results are taken from article PMC8622706, “Synthesis, Molecular Docking, and Antimalarial Activity of Hybrid 4-Aminoquinoline-pyrano[2,3-c]pyrazole Derivatives” (Pharmaceuticals, 2021).

SMILES strings stand for the structures. Where two headings read alike, the source gives them in different places.

Data set [1] relates to P. falciparum 3D7 (chloroquine-sensitive). Briefly: pLDH antimalarial assay, P. falciparum 3D7 culture. The class given is cell-based, Plasmodium falciparum. Conditions: for EC50: Plasmodium falciparum, read-out: P. falciparum 3D7 (CQ-Sensitive) EC50 ± S.D.; for Selectivity Index (SI), (CC50 MTT/EC50 pLDH), CQ-Sensitive: Vero CC50 / 3D7 EC50. How it is done:
(§1) The parasites were cultivated by the Trager and Jensen methods to determine the antimalarial activity of the hybrid 4-aminoquinoline-pyrano[2,3-c]pyrazole derivatives against chloroquine-sensitive P. falciparum 3D7 and chloroquine-resistant P. falciparum K1. […] The parasites were maintained in continuous culture in fresh group O (Rhesus positive) human erythrocytes suspended in 2% hematocrit in RPMI 1640 containing […] Albumax I, glucose (3 g/L), hypoxanthine (45 μg/L), and gentamicin (50 μg/L). Plasmodium lactate dehydrogenase (pLDH) assays were performed as described by Makler et al., with slight modification. Parasites were plated in asynchronized phase at 2% hematocrit and 2% parasitemia in 100 μL of the test compounds. The compounds were dissolved in DMSO and further diluted in a culture medium. Chloroquine diphosphate and artemisinin were used as antimalarial reference drugs. Unparasitized erythrocytes without the test compounds were the blanks, while parasitized erythrocytes without test compounds were the control for the assay. Plates were placed in an incubator supplied with 5% CO2 and incubated at 37 °C for 48 h. After incubation, plates were subjected to three 30 min of freeze-thaw cycles to lyse and re-suspend the erythrocytes in the culture. Subsequently, Malstat reagent (100 μL) and a nitro blue tetrazolium salt/phenazine ethosulfate (NBT/PES) solution (25 μL) were added to each well of a new 96-well microtiter plate. The culture (25 μL) was then added to the corresponding well of the reagent plate to initiate the lactate dehydrogenase reaction. Color development of the plate was monitored calorimetrically at 650 nm after an hour of incubation in the dark.

The test system of data set [2] is P. falciparum K1 (chloroquine-resistant). Kind of data set: pLDH antimalarial assay, P. falciparum K1 culture. It counts as cell-based, Plasmodium falciparum. The note with it: for EC50: Plasmodium falciparum, read-out: P. falciparum K1 (CQ-Resistant) EC50 ± S.D.; for Resistance Index (RI), (EC50 Resistance/EC50 Sensitive): K1/3D7; for Selectivity Index (SI), (CC50 MTT/EC50 pLDH), CQ-Resistant: Vero CC50 / K1 EC50. How it is done: as §1

Data set [3] can be described thus: MTT cytotoxicity assay. It counts as cell-based. The note with it: African green monkey, Vero cells (ATCC CCL-81), read-out: Vero Cell (Normal Cell) CC50 ± S.D. How it is done: The cytotoxicity of the hybrid 4-aminoquinoline-pyrano[2,3-c]pyrazole derivatives was measured using the MTT assay described by Mossmann. […] The cell suspension without test compounds served as the positive control for cell growth. […] The medium was then aspirated, and formazan crystals were solubilized by adding 100 μL of DMSO per well for 10 min at 37 °C in a CO2 incubator. […] Three independent tests were conducted to determine the cytotoxicity of each test compound.
In general terms: Formazan colour is commonly taken as a measure of viable cells.

Data set [4] has as its system P. berghei. The arrangement: method as in PMID 30737133. The note with it: P. berghei-infected mice, 5th day after infection; cited from earlier work.
The subject of data set [5] is P. falciparum. The arrangement: method as in doi:10.1039/C6RA01349J. Conditions: comparator value; read-out: antiplasmodial activity against P. falciparum; cited from earlier work.
Setting [6] is: 3D7, chloroquine-sensitive strain, pLDH assay, 48 h.
Setting [7] is: K1, chloroquine-resistant strain, pLDH assay, 48 h.

On to `CCN(CC)CCCC(C)Nc1ccnc2cc(Cl)ccc12` (stereo not drawn) [CQ, chloroquine, reference compound], for which the EC50 was 2 nM in data set [1] (3D7, 48 h) and 330 nM in data set [2] (K1, 48 h).

In the case of `CCOC(=O)c1nn(CCNc2ccnc3cc(Cl)ccc23)c2c1C(c1ccc(CC)cc1)C(C#N)=C(N)O2` (stereo not drawn) [Compound 4b, Ethyl 6-Amino-1-(2-((7-chloroquinolin-4-yl)amino)ethyl)-5-cyano-4-(4-ethylphenyl)-1,4-dihydropyrano[2,3-c]pyrazole-3-carboxylate], the EC50 in data set [1] (setting [6]) stood at 13 ± 0.2 nM. In data set [1], the “Selectivity Index (SI), (CC50 MTT/EC50 pLDH), CQ-Sensitive” value (from here on “Selectivity Index (SI) … CQ-Sensitive”) was found to be 1353.9. Moreover, in data set [2], the “Resistance Index (RI), (EC50 Resistance/EC50 Sensitive)” value (“Resistance Index (RI)” below) amounted to 1.53 and the “Selectivity Index (SI), (CC50 MTT/EC50 pLDH), CQ-Resistant” value (“Selectivity Index (SI) … CQ-Resistant” for short) was 880. The EC50 in data set [2] (setting [7]) worked out at 20 ± 10 nM.

For `CCOC(=O)c1nn(CCNc2ccnc3cc(Cl)ccc23)c2c1C(c1ccc(O)cc1)C(C#N)=C(N)O2` (stereo not drawn) [Compound 4e, Ethyl 6-Amino-1-(2-((7-chloroquinolyn-4-yl)amino)ethyl)-5-cyano-4-(4-hydroxyphenyl)-1,4-dihydropyrano[2,3-c]pyrazole-3-carboxylate], in data set [1] (setting [6]), the EC50 is 26 ± 9 nM. Moreover, the “Selectivity Index (SI) … CQ-Sensitive” value in data set [1] came to 355.3. Besides, in data set [2], the “Resistance Index (RI)” value is given as 273.84 and the “Selectivity Index (SI) … CQ-Resistant” value is reported as 1.3. Besides, the EC50 in data set [2] (setting [7]) was found to be 7120 ± 3720 nM.

For `C[C@@H]1CC[C@H]2[C@@H](C)C(=O)O[C@@H]3O[C@@]4(C)CC[C@@H]1[C@]32OO4` [ART, artemisinin, reference compound], the EC50 in data set [1] (setting [6]) stood at 0.1 nM. In addition, the “Selectivity Index (SI) … CQ-Sensitive” value in data set [1] is reported as more than 2000. In addition, in data set [2], the “Resistance Index (RI)” value is 1.7 and the “Selectivity Index (SI) … CQ-Resistant” value was more than 2000. For the same compound, the EC50 in data set [2] (setting [7]) stood at 0.17 nM.

Turning to `CCOC(=O)c1nn(CCNc2ccnc3cc(Cl)ccc23)c2c1C(C(C)C)C(C#N)=C(N)O2` (stereo not drawn) [Compound 4d, Ethyl 6-Amino-1-(2-((7-chloroquinolyn-4-yl)amino)ethyl)-5-cyano-4-isopropyl-1,4-dihydropyrano[2,3-c]pyrazole-3-carboxylate], the EC50 in data set [1] (setting [6]) amounted to 3390 ± 1890 nM. The “Selectivity Index (SI) … CQ-Sensitive” value in data set [1] was 25.4. The “Antimalarial activity class against 3D7” value in data set [1] (class by EC50 threshold) is given as “active”. Further, in data set [2], the “Resistance Index (RI)” value is recorded as 0.09 and the “Selectivity Index (SI) … CQ-Resistant” value is recorded as 287. The EC50 in data set [2] (setting [7]) is 300 ± 10 nM.

On to `Nc1ccnc2ccccc12` [4-aminoquinoline], for which the EC50 is 9290 ± 120 nM in data set [1] (setting [6]) and 140000 ± 27600 nM in data set [2] (setting [7]). Also, in data set [1], the “Selectivity Index (SI) … CQ-Sensitive” value is 12.25. Further, the CC50 at 48 h in data set [3] amounted to 114000 ± 1630 nM. Further, the “Resistance Index (RI)” value in data set [2] is 15.11. The “Selectivity Index (SI) … CQ-Resistant” value in data set [2] stood at 0.81.

For `CCOC(=O)c1nn(CCNc2ccnc3cc(Cl)ccc23)c2c1C(c1ccccc1)C(C#N)=C(N)O2` (stereo not drawn) [Compound 4a, Ethyl 6-Amino-1-(2-((7-chloroquinolin-4-yl)amino)ethyl)-5-cyano-4-phenyl-1,4-dihydropyrano[2,3-c]pyrazole-3-carboxylate], the EC50 is 190 ± 70 nM in data set [1] (setting [6]) and 250 ± 30 nM in data set [2] (setting [7]). The “Selectivity Index (SI) … CQ-Sensitive” value in data set [1] came out at 539.7. The “Resistance Index (RI)” value in data set [2] stood at 1.32. For the same compound, the “Selectivity Index (SI) … CQ-Resistant” value in data set [2] came to 410.16.

Turning to `Cc1nnc(Nc2cc(C(F)(F)F)nc3c(C(F)(F)F)cccc23)[nH]1` [VIII, N-(5-methyl-4H-1,2,4-triazol-3-yl)-2,8-bis(trifluoromethyl)quinolin-4-amine], the reduction of parasitemia in data set [4] is recorded as 66%.

Turning to `CCOC(=O)c1nn(CCNc2ccnc3cc(Cl)ccc23)c2c1C(c1ccco1)C(C#N)=C(N)O2` (stereo not drawn) [Compound 4c, Ethyl 6-Amino-1-(2-((7-chloroquinolyn-4-yl)amino)ethyl)-5-cyano-4-(furan-2-yl)-1,4-dihydropyrano[2,3-c]pyrazole-3-carboxylate], the EC50 in data set [1] (setting [6]) turned out to be 113 ± 2 nM; in data set [2] (setting [7]) it was 1610 ± 150 nM. Also, the “Selectivity Index (SI) … CQ-Sensitive” value in data set [1] is reported as 747.9. In addition, in data set [2], the “Resistance Index (RI)” value turned out to be 14.24. The “Selectivity Index (SI) … CQ-Resistant” value in data set [2] was found to be 52.49. The “Antimalarial activity class against K1” value in data set [2] (class by EC50 threshold) was “active”.

As for `C=C[C@H]1C[N@@]2CC[C@H]1C[C@H]2[C@H](O)c1ccnc2ccc(OC)cc12` [quinine], the IC50 in data set [5] is 826 nM.

The term EC50 denotes the concentration needed to bring the measured effect to its halfway point. As a reminder, the CC50 is the concentration that lowers cell viability or growth by half.
